For assay [1], the target named is T1, human CRF receptor I (Homo sapiens, UniProt P34998).
T1 construct: expressed in transfected cells; host or cells: CHO-K1
T1 sequence (P34998 24-415): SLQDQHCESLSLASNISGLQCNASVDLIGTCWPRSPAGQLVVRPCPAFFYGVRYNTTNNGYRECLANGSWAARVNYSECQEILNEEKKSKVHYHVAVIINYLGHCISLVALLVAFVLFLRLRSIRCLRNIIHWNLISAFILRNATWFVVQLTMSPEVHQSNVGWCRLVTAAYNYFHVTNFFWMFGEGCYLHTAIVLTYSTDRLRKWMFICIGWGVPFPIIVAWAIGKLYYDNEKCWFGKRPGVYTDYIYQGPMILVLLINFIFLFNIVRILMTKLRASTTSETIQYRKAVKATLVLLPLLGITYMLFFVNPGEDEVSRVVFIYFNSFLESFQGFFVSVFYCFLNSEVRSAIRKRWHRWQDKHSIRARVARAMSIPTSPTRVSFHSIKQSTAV
The assay is described as follows: Receptor antagonistic activity (cyclic AMP assay). To be noted: human/rat CRF stimulation, 37° C., 15 minutes; read-out: IC50 value, antagonistic activity against CRF (accumulated cyclic AMP). It is filed as cell-based. Here is the method: The forced expression cell strain of the human CRF receptor I was cultured at 37° C. under 5% carbon dioxide and 95% air by using a Ham's F-12 medium (F-12 nutrient mixture) containing 10% bovine fetal serum and 1% antibiotic substance-antifungal agent. On the previous day before the cyclic AMP was measured, the cells were inoculated into a 96-well plate in an amount of 1×10^4 cell/well. On the measurement day, the cells were washed twice with a Ham's F-12 medium, whereby a solution of Ham's F-12 medium/1 mM 3-isobutyl-1-methylxanthine (assay medium) (178 μL) was added to each well. After the incubation at 37° C. for 10 minutes, test drug solutions (2 μL) in various concentrations were added thereto, or DMSO (2 μL) was added to a CRF group and a blank group. An assay medium (20 μL) containing 10 nM human/rat CRF was added to wells of a compound group and the CRF group. An assay medium (20 μL) containing 0.00001% acetic acid was added to the blank group. Each group was further incubated at 37° C. for 15 minutes. […] The accumulated cyclic AMP amounts were calculated by subtracting mean values of corresponding 2 wells in the blank group from that of 2 wells. The IC50 values were calculated with non-linear regression analysis by defining logarithm concentration of the compound as independent variable and an accumulated cyclic AMP amount as dependent variable.

Assay [2] has as its target T1, human CRF receptor I. The assay is described as follows: Binding assay (125I-CRF, membrane fraction of CHO-K1 cells with forced expression of the receptor). To be noted: 125I-CRF 0.25 nM, room temperature, 2 hours. Here is the method:
The forced-expression cell strain of the human CRF receptor I (parent strain is CHO-K1 cell) was cultured until the cell was confluent and collected with a scraper. The collected cells were washed twice with PBS, and were suspended with an ice-colded binding assay buffer (Tris-HCl (50 mM, pH 7.0), EDTA (2 mM, pH 8.0), and MgCl2 (10 mM)). After fractured with a dounce-type homogenizer, the suspended cells were centrifuged at 10,000 g, and a membrane fraction was collected. The collected membrane fraction was resuspended with a little amount of the binding assay buffer, thereafter diluted with the binding assay buffer so as to have a concentration of 1 mg/mL. The obtained membrane fraction was used for a binding assay.
^125I-CRF was diluted with the binding assay buffer so as to have a concentration of 0.5 nM, whereby 50 μL of the diluted ^125I-CRF was added to a siliconized 1.5-mL tube. Next, test drugs diluted at appropriate times, such as DMSO (for general binding) or 100 μM of CRF (for non-specific binding), was added to a […]. Finally, 50 μL of the membrane fraction was added thereto and the reaction was started (final concentration of ^125I-CRF was 0.25 nM). The tube was incubated at room temperature for 2 hours. […] A membrane binding count was measured using a γ counter. The specific binding count was obtained by subtracting the non-specific count from the measured count.

The subject of the next assay is swim-stressed SD rat. Description: Elevated plus maze test with swim-stressed rat. The assay is classed as in vivo. As to conditions: orally, 1 hour before the test. Here is the method:
2 open arms with the same lengths (50×10 cm) and 2 close arms (a 30 cm wall was provided) with the same lengths (50×10 cm) were arranged in orthogonal manner at a height of 50 cm from the floor to provide an elevated crossroad maze system. In 70 cm above the both open arms, white light was provided, whereby illuminance was maintained at constant.
A 7-week-old SD rat (CHARLES RIVER LABORATORIES JAPAN) was forcedly made to swim for 120 seconds in a pool (40×30×38 cm) at 22° C. of water temperature and 25 cm of water depth. After 9 minutes of soaking stress loading, the rat was put on the center of the system. The activity for 5 minutes of the rat was analyzed with an automatic activity-tracking analysis system (EthoVision Version 3.0, Noldus Information Technology) to calculate the dwell time (second) on the open arm.
Note that no soaking stress was loaded on the control group. In addition, 20% Solutol/HS15 (5 mL/Kg) was orally administered to the vehicle group and test drugs in various concentrations were orally administrated to the test drug administration group 1 hour before the test.

As a reminder, the IC50 is the concentration that inhibits the measured activity by half. Consider `CCC(CC)c1cc(C)n2nc(-c3ccc(OC)cc3C)c(C)cc12` [Example 8, 5-(1-ethylpropyl)-2-(4-methoxy-2-methylphenyl)-3,7-dimethylpyrrolo[1,2-b]pyridazine], for which the half-maximal inhibitory concentration (IC50) on human CRF receptor I [1] worked out at 4.9 nM; on human CRF receptor I [2], 16.4 nM. Further, the “dwell time on the open arm compared to that of the vehicle group” value in the assay on swim-stressed SD rat (10 mg/kg) and in the assay with swim-stressed SD rat was “favorably elongated the dwell time on the open arm” throughout.

For the origin of these results see US20100184771A1, “Bicyclic Heterocyclic Compound” (ONO PHARMACEUTICAL CO., LTD., priority 2005, published 2010).
